Laboratory results reported in patent publication US11358973B2, “Di(hetero)aryl macrocyclic compound for inhibiting protein kinase activity” (Shenzhen TargetRx, Inc., priority 2018, dated 2022).
Like-named read-outs stand apart in the source and are kept apart here.

How the values were obtained:
TRKA kinase = TRKA kinase (Homo sapiens, UniProt P04629); assay: Biochemical kinase analysis (HTRF), TRKA; settings: 23° C., read-out: Kinase IC50 (nM) TRK A
Protocol: (§1) Inhibition of TRKA, TRKB, TRKC kinases can be measured by HTRF ([…]) method. The reaction was performed in a 384-well plate at 23° C. with a volume of 20 μL. TRKA TRKB or TRKC kinase were mixed with pre-formulated and diluted compounds of different concentrations for ten minutes in duplicate for each concentration, wherein 11 concentrations made with a 3-fold gradient dilution from the starting concentration of 300 nM were made and the final concentration of DMSO was 2%. The corresponding substrate and ATP were added thereto, and reacted at room temperature for 20 minutes (both a negative and a positive control were set: negative control is blank control, positive control is Entrectinib). After the reaction, detection reagent was added thereto (reagent in HTRF Kinase TK kit), and after incubation at room temperature for 30 minutes, detection was carried out by PerkinElmer Envision microplate reader for determining enzyme activity in the presence of the compounds of the present disclosure at various concentrations, and the inhibitory activity of different concentrations of compounds against enzyme activity was calculated. After that, in accordance with four-factors function and Graphpad 5.0 software, inhibitory activity on enzyme activity under different concentrations of compounds was fitted and IC50 values were calculated.

TRKC kinase = TRKC kinase (Homo sapiens, UniProt Q16288); assay: Biochemical kinase analysis (HTRF), TRKC; settings: 23° C., read-out: Kinase IC50 (nM) TRK C
TRKC kinase, sequence (Q16288 32-839): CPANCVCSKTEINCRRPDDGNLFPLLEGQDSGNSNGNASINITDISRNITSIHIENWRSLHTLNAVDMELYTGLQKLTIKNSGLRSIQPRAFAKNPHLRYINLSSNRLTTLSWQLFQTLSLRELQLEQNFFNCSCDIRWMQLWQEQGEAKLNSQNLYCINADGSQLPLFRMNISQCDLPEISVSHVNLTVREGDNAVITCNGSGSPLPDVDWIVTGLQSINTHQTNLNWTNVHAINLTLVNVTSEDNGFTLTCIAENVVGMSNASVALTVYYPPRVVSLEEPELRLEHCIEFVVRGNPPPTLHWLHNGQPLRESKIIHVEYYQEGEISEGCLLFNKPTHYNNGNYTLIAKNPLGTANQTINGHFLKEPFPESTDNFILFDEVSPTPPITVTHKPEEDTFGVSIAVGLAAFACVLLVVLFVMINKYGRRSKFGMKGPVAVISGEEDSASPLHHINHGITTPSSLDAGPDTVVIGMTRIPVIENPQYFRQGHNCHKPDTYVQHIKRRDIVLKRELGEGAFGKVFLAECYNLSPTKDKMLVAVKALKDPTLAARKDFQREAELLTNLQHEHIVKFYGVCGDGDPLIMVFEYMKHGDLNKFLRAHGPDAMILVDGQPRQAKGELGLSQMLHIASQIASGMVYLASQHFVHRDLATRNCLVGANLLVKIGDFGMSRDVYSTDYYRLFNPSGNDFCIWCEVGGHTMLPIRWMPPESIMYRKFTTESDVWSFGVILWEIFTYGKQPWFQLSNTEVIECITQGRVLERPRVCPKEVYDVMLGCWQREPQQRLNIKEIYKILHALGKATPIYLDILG
Protocol: as §1

TRKB kinase = TRKB kinase (Homo sapiens, UniProt Q16620); assay: Biochemical kinase analysis (HTRF), TRKB; settings: 23° C., read-out: Kinase IC50 (nM) TRK B
TRKB kinase, sequence (Q16620 32-822): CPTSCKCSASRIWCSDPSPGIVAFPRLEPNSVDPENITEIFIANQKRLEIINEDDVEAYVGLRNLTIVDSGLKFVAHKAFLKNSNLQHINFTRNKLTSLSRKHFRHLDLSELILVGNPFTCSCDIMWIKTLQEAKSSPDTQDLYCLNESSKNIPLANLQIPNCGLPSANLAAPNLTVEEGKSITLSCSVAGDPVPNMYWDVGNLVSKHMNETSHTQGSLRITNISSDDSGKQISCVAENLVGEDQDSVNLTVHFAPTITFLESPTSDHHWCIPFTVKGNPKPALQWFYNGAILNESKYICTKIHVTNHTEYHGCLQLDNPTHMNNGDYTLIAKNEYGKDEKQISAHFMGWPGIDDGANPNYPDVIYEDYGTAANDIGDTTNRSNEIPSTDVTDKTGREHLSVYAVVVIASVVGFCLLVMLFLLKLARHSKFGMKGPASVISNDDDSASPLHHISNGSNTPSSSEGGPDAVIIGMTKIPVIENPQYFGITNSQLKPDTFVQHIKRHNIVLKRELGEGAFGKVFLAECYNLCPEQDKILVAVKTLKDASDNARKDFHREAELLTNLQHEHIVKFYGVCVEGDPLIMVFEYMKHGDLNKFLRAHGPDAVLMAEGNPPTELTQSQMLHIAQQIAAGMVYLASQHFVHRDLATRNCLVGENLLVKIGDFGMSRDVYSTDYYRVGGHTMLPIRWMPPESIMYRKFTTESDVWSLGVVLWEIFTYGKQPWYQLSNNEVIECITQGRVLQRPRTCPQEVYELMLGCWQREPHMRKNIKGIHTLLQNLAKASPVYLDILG
Protocol: as §1

KM12 cell line = assay: KM12 cell proliferation analysis (CellTiter-Glo); format: cell-based; settings: Homo sapiens, 72 h
Protocol: The CGT method was used to detect the in vitro anti-proliferative activity of the compounds of the present disclosure on tumor cells cultured in vitro. The KM12 cell line was maintained in RPMI-1640 medium containing 10% fetal bovine serum and antibiotics, the cells in the logarithmic growth phase were harvested and planted in a 96-well plate. The plate was incubated in an incubator at 37° C., containing 5% carbon dioxide gas overnight. After the test compounds were dissolved in DMSO, a 3-fold concentration gradient dilution with 9 compound concentrations was made. Pre-prepared compounds of different concentrations were transferred to the cell plate in triplicate for each concentration, and continue culturing for 72 h. The final concentration of DMSO in the system was 0.1%, and the initial concentration of the test compound was 300 nM.
CellTiter-Glo reagent was added to the cell plate, and incubated at room temperature for 30 minutes to stabilize the optical signal. Detection was carried out by PerkinElmer Envision microplate reader for determining the inhibitory activity of the compound of the present disclosure at various concentrations on cell proliferation. The inhibitory activity of compounds at different concentrations on cell proliferation was fitted according to Graphpad 5.0 software, and IC50 values were calculated.

[1] = Pharmacokinetic experiment in rats; format: in vivo, Sprague-Dawley rats; parameters: Cl_pred (L/kg): unit not given here; settings: rat; for AUC(0-t) / Cmax / Tmax / half-life / AUC(0-inf) / MRT inf / bioavailability: male, Sprague-Dawley, plasma; for AUC(0-inf): read-out: AUCINF_pred; for MRT inf: read-out: MRTINF_pred; for bioavailability: PO 10 mg/kg vs IV 3 mg/kg
Protocol: 6 male Sprague-Dawley rats (7-8 weeks old, and weighing approximately 210 g) were divided into 2 groups with 3 rats in each group. The rats were intravenously or orally administered a single dose of compounds (3 mg/kg intravenously, 10 mg/kg orally) to compare pharmacokinetic differences.
The rats were feeded on standard food and water. Fasting was started 16 hours before the test. The drug was dissolved in PEG400 and dimethyl sulfoxide. The blood samples were collected from eyelids at the time points of 0.083 hour, 0.25 hour, 0.5 hour, 1 hour, 2 hours, 4 hours, 6 hours, 8 hours, 12 hours, and 24 hours after administration.
Rats were briefly anesthetized after inhalation of diethyl ether and 300 μL of blood sample was collected from the eyelids into test tubes. There was 30 μL of 1% heparin salt solution in the test tube. Tubes were dried at 60° C. overnight before use. After the blood sample was collected at the last time point, the rats were sacrificed after ether anesthesia.
Immediately after the collection of the blood sample, the test tube was gently inverted at least 5 times to ensure sufficient mixing and then placed on ice. The blood sample was centrifuged at 5000 rpm at 4° C. for 5 minutes to separate the plasma from the red blood cells. 100 μL of plasma was aspirated into a clean plastic centrifuge tube with a pipette, marking with the name of the compound and time point. Plasma was stored at −80° C. prior to analysis. The concentration of the compound of the present disclosure in plasma was determined by LC-MS/MS. The pharmacokinetic parameters were calculated based on the blood concentration of the drug for each animal at different time points.

TRKA kinase, sequence (P04629 33-796): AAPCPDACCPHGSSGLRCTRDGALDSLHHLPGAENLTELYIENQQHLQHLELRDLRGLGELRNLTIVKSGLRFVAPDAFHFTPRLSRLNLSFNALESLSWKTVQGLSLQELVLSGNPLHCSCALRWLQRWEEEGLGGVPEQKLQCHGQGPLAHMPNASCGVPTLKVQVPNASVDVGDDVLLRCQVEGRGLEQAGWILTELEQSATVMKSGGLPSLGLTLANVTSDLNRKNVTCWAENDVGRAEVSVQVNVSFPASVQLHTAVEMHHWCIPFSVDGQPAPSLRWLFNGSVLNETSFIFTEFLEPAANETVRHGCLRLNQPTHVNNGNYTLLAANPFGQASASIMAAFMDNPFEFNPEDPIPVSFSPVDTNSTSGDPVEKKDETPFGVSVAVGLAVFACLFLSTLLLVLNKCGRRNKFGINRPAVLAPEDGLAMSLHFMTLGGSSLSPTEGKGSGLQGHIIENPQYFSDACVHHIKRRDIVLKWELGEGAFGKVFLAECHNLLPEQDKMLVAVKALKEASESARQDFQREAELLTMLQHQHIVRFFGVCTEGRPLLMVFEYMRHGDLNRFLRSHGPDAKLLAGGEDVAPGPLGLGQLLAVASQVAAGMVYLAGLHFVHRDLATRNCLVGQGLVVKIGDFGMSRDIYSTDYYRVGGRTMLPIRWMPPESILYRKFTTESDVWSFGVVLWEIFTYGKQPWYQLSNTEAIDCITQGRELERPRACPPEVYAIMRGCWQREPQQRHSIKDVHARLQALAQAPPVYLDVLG

| SMILES | IC50 (TRKA kinase) | IC50 (TRKC kinase) | IC50 (TRKB kinase) | IC50 (KM12 cell line) | AUC(0-t) ([1]; IV 3 mg/kg) | Cmax ([1]; IV 3 mg/kg) | Tmax ([1]; IV 3 mg/kg) | half-life ([1]; IV 3 mg/kg) | AUC(0-inf) ([1]; IV 3 mg/kg) | MRT inf ([1]; IV 3 mg/kg) | AUC(0-t) ([1]; PO 10 mg/kg) | Cmax ([1]; PO 10 mg/kg) | Tmax ([1]; PO 10 mg/kg) | half-life ([1]; PO 10 mg/kg) | bioavailability [1] | AUC(0-inf) ([1]; PO 10 mg/kg) | MRT inf ([1]; PO 10 mg/kg) | Vz_pred ([1]; IV 3 mg/kg) | Vz_pred ([1]; PO 10 mg/kg) | other results |
| --- | --- | --- | --- | --- | --- | --- | --- | --- | --- | --- | --- | --- | --- | --- | --- | --- | --- | --- | --- | --- |
| C[C@H]1Nc2ccn3ncc(c3n2)NC(=O)C(C)(C)COc2ccc(F)cc21 [Compound T-3] | 0.34 nM | 0.52 nM | 0.57 nM | – | – | – | – | – | – | – | – | – | – | – | – | – | – | – | – | – |
| C[C@H]1CC(=O)Nc2cnn3ccc(nc23)N2CCC[C@H]2c2cc(F)ccc2O1 [Compound L-2-B, (6S,14S)-9-fluoro-14-methyl-13-oxa-2,17,20,21,24-pentaazapentacyclo[16.5.2.0^2,6.0^7,12.0^21,25]pentacosane-1(24),7,9,11,18(25),19,22-heptaene-16-one] | 0.41 nM | 0.18 nM | 0.13 nM | 0.65 nM | – | – | – | – | – | – | – | – | – | – | – | – | – | – | – | – |
| O=C1CCOc2ccc(F)cc2[C@@H]2CCCN2c2ccn3ncc(c3n2)N1 [Compound L-1-B, (6S)-9-fluoro-13-oxa-2,17,20,21,24-pentaazapentacyclo[16.5.2.0^2,6.0^7,12.0^21,25]pentacosane-1(24),7,9,11,18(25),19,22-heptaene-16-one] | 21.1 nM | 14.2 nM | 15.5 nM | 162 nM | – | – | – | – | – | – | – | – | – | – | – | – | – | – | – | – |
| C[C@H]1CC(=O)Nc2cnn3ccc(nc23)N2CCC[C@@H]2c2cc(F)ccc2O1 [Compound L-2-A, (6R,14S)-9-fluoro-14-methyl-13-oxa-2,17,20,21,24-pentaazapentacyclo[16.5.2.0^2,6.0^7,12.0^21,25]pentacosane-1(24),7,9,11,18(25),19,22-heptaene-16-one] | 0.17 nM | 0.1 nM | 0.1 nM | 0.25 nM | 2480 ng·h/mL | 1620 ng/mL | 4.8 min | 145 min | 2480 ng·h/mL | 1.2 h | 4470 ng·h/mL | 1410 ng/mL | 30 min | 121 min | 54.2% | 4530 ng·h/mL | 2.8 h | 1.85 L/kg | 8.50 L/kg | Cl_pred (L/kg) ([1]; IV 3 mg/kg): 1.23; Cl_pred (L/kg) ([1]; PO 10 mg/kg): 2.44 |
| CC1(C)COc2ccc(F)cc2[C@@H]2CCCN2c2ccn3ncc(c3n2)NC1=O [Compound L-3-B, (6S)-9-fluoro-15,15-dimethyl-13-oxa-2,17,20,21,24-pentaazapentacyclo[16.5.2.0^2,6.0^7,12.0^21,25]pentacosane-1(24),7,9,11,18(25),19,22-heptaene-16-one] | > 100 nM | > 100 nM | 70.8 nM | – | – | – | – | – | – | – | – | – | – | – | – | – | – | – | – | – |
| C[C@H]1Nc2ccn3ncc(c3n2)NC(=O)NCCCc2ccc(F)cc21 [Compound T-5, (14R)-12-fluoro-14-methyl-5,6,7,8,14,15-hexahydro-1,16-ethenopyrazolo[4,3-g][1,4,9,11]benzodioadiazatridecin-5(6H)-one] | 93.9 nM | 258 nM | 225 nM | – | – | – | – | – | – | – | – | – | – | – | – | – | – | – | – | – |
| C[C@@H]1Nc2ccn3ncc(c3n2)NC(=O)C[C@H](C)Oc2ccc(F)cc21 [Compound T-2-B, (7S,13S)-11-fluoro-7,13-dimethyl-6,7,13,14-tetrahydro-1,15-ethenopyrazolo[4,3-f][1,4,8,10]benzoxatriazacyclotidecin-5(6H)-one] | 0.36 nM | 0.09 nM | 0.09 nM | 4.79 nM | – | – | – | – | – | – | – | – | – | – | – | – | – | – | – | – |
| C[C@H]1Nc2ccn3ncc(c3n2)NC(=O)NCCOc2ccc(F)cc21 [Compound T-4, (14R)-12-fluoro-14-methyl-5,6,7,8,14,15-hexahydro-1,16-ethenopyrazolo[4,3-g][1,4,9,11]benzoxatetraazacyclotetradecin-5(6H)-one] | 4.91 nM | 5.41 nM | 5.31 nM | – | – | – | – | – | – | – | – | – | – | – | – | – | – | – | – | – |
| O=C1CCOc2ccc(F)cc2[C@H]2CCCN2c2ccn3ncc(c3n2)N1 [Compound L-1-A, (6R)-9-fluoro-13-oxa-2,7,20,21,24-pentaazapentacyclo[16.5.2.0^26.0^7,12.0^21,25]pentacosane-1(24),7,9,11,18(25),19,22-heptaene-16-one] | 0.18 nM | 0.14 nM | 0.1 nM | 0.55 nM | 5010 ng·h/mL | 2160 ng/mL | 4.8 min | 132 min | 5030 ng·h/mL | 2.18 h | 11300 ng·h/mL | 1490 ng/mL | 94.8 min | 346 min | 67.9% | 11300 ng·h/mL | 4.9 h | 1.75 L/kg | 2.92 L/kg | Cl_pred (L/kg) ([1]; IV 3 mg/kg): 0.60; Cl_pred (L/kg) ([1]; PO 10 mg/kg): 0.92 |
| C[C@H]1Nc2ccn3ncc(c3n2)NC(=O)CCOc2ccc(F)cc21 [Compound T-1, (13R)-11-fluoro-13-methyl-6,7,13,14-tetrahydro-1,15-ethenopyrazolo[4,3-f][1,4,8,10]benzoxatriazacyclotridecin-5(6H)-one] | < 0.17 nM | < 0.17 nM | < 0.17 nM | 5.13 nM | 6240 ng·h/mL | 2120 ng/mL | 4.8 min | 543 min | 6350 ng·h/mL | 4.04 h | 11500 ng·h/mL | 1860 ng/mL | 100 min | 21.6 min | 55.5% | 13100 ng·h/mL | 6.23 h | 3.28 L/kg | 10.05 L/kg | Cl_pred (L/kg) ([1]; IV 3 mg/kg): 0.47; Cl_pred (L/kg) ([1]; PO 10 mg/kg): 0.77 |
| C[C@@H]1CCc2ncc(F)cc2[C@H]2CCCN2c2ccn3ncc(c3n2)C(=O)N1 [LOXO-195, reference compound] | – | – | – | 2.73 nM | 4670 ng·h/mL | 5010 ng/mL | 4.8 min | 87 min | 4670 ng·h/mL | 0.54 h | 4070 ng·h/mL | 1660 ng/mL | 19.8 min | 247 min | 26.2% | 4090 ng·h/mL | 2.31 h | 0.75 L/kg | 5.13 L/kg | – |
| C[C@H]1CNC(=O)c2cnn3ccc(nc23)N[C@H](C)c2cc(F)ccc2O1 [TPX-0005, reference compound] | – | – | – | 1.97 nM | 3560 ng·h/mL | 2190 ng/mL | 4.8 min | 346 min | 3580 ng·h/mL | 1.76 h | 5470 ng·h/mL | 732 ng/mL | 100 min | 45.6 min | 46.1% | 5590 ng·h/mL | 5.42 h | 4.46 L/kg | 15.81 L/kg | – |
| O=C1CCOc2ccc(F)cc2C2CCCN2c2ccn3ncc(c3n2)N1 (racemic) [Compound 9a, 9-fluoro-13-oxa-2,17,20,21,24-pentaazapentacyclo[16.5.2.0^2,6.0^7,12.0^21,25]pentacosane-1(24),7,9,11,18(25),19,22-heptaene-16-one] | 0.17 nM | 0.1 nM | 0.1 nM | 1.78 nM | – | – | – | – | – | – | – | – | – | – | – | – | – | – | – | – |
